What was measured:
DLK = DLK (Homo sapiens (Human), UniProt Q12852); assay: DLK biochemical assay (TR-FRET, MKK7 phosphorylation)
Method: DLK assay is a biochemical assay format designed to screen for inhibitors of DLK. Enzymatic activity of DLK was measured by monitoring phosphorylation of the physiological substrate MKK7 (MAP2K7, Dual specificity mitogen-activated protein kinase kinase 7). Phosphorylation was detected by a TR-FRET system whereby His-tagged MKK7 was labeled by a XL665-labeled anti-His antibody (FRET acceptor, emission 665 nm). DLK phosphorylates MKK7 at T275/S277, which was detected by an Eu-labeled anti-phospho-MKK7 (T275/S277) antibody (F RET donor, excitation 340 nm). Phosphorylation of MKK7 results in an increased TR-FRET signal (Ratio XL665-channel/Eu-channel) and inhibition of enzymatic activity of DLK decreases the TR-FRET signal.
Assay Protocol for 1536 MTP format: test compounds were predispensed (60 nl) in test plates; +3 μl DLK solution (10 nM DLK, catalytic domain, Carna Biosiences, 0.6 mM DTT in assay buffer); +2 μl substrate solution (15 nM MKK7, LDB; 60 μM ATP; 0.4 mM DTT in assay buffer); 90 min incubation at RT; +2 μl detection mix (5 nM XL665-labeled anti-His antibody, Cisbio; 0.1 nM Eu-labeled anti-phospho-MKK7 (T275/S277), Cisbio/Millipore in detection buffer); 16 h incubation at 37° C.; endpoint measurement BMG (HTRF).
Assay Protocol for 384 low volume MTP format: 1 μl of test compounds were pipetted into test plate; +5 μl DLK solution (10 nM DLK, catalytic domain, Carna Biosiences in assay buffer); +5 μl substrate solution (15 nM MKK7, LDB; 60 μM ATP, in assay buffer); 90 min incubation at RT; +9 μl detection mix (20 nM XL665-labeled anti-His antibody, Cisbio; 0.4 nM Eu-labeled anti-phospho-MKK7 (T275/S277), Cisbio/Millipore in detection buffer); 16 h incubation at 4° C.; endpoint measurement BMG (HTRF).
(§1) All indicated concentrations final concentrations.
Assay buffer (384 format): 50 mM Hepes pH 7.5, 10 mM MgCl2, 1 mM EGTA, 1 mM DTT, 0,01% Triton X-100, 0.01% BSA, 1:500 Smart Block.
(§2) Detection buffer: 25 mM Tris/HCl pH 7.5, 100 mM EDTA, 100 mM NaCl, 200 mM KF, 0.01% Tween 20, 1:500 Smart Block.

LZK = LZK (Homo sapiens (Human), UniProt O43283); assay: LZK biochemical assay (TR-FRET, MKK7 phosphorylation)
LZK, sequence (O43283 168-409): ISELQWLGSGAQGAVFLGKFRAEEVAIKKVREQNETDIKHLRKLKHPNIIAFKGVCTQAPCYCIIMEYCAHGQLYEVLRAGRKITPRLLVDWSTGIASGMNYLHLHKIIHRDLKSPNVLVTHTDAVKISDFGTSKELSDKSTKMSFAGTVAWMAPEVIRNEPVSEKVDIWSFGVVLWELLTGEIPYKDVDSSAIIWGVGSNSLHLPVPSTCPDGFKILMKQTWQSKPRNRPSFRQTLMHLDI
Method: LZK assay is a biochemical assay format designed to screen for inhibitors of LZK. Enzymatic activity of LZK was measured by monitoring phosphorylation of the physiological substrate MKK7 (MAP2K7, Dual specificity mitogen-activated protein kinase kinase 7). Phosphorylation was detected by a TR-FRET system whereby His-tagged MKK7 was labeled by a XL665-labeled anti-His antibody (FRET acceptor, emission 665 nm). LZK phosphorylates MKK7 at T275/S277 which were detected by an Eu-labeled anti-phospho-MKK7 (T275/S277) antibody (FRET donor, excitation 340 nm). Phosphorylation of MKK7 results in an increased TR-FRET signal (Ratio XL665-channel/Eu-channel) and inhibition of enzymatic activity of LZK decreases the TR-FRET signal.
Assay Protocol for 384 low volume MTP format: 1 μl of test compound was pipetted into test plate; +5 μl LZK solution (10 nM LZK, catalytic domain, Carna Biosiences in assay buffer); +5 μl substrate solution (15 nM MKK7, LDB; 15 μM ATP, in assay buffer); 90 min incubation at RT; +5 μl detection mix (20 nM XL665-labeled anti-His antibody, Cisbio; 0.4 nM Eu-labeled anti-phospho-MKK7 (T275/S277), Cisbio/Millipore in detection buffer), 16 h incubation at 32° C.; endpoint measurement BMG (HTRF).
as §1
Assay buffer (384 format): 50 mM Hepes pH 7.5, 10 mM MgCl2, 1 mM EGTA, 1 mM DTT, 0.01% Triton X-100, 0.01% BSA, 1:500 Smart Block.
as §2

DLK, sequence (Q12852 1-520): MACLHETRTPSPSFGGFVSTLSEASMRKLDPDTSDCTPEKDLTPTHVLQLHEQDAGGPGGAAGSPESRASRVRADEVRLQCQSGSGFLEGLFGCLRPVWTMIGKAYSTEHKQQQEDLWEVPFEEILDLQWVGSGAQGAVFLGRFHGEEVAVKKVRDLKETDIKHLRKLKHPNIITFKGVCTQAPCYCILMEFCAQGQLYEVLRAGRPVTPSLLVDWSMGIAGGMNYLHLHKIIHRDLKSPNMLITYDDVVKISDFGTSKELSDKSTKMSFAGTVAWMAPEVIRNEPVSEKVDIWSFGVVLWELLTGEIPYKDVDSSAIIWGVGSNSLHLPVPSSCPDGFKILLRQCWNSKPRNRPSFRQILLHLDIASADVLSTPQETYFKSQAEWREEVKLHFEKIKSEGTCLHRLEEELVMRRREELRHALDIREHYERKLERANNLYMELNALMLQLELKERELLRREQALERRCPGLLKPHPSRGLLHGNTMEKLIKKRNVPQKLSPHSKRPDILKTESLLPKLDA

Row | IC50 (DLK) [nM] | IC50 (LZK) [nM] | Compound
1 | 3.4 | 110 | C[C@H](NC(=O)c1cc(-c2cc(C(=O)NC3CNC(=O)C3)c3nc(N)nn3c2)cs1)c1ccc(F)cc1 (mixture of isomers) [Compound 28]
2 | 2.8 | 60 | C[C@H](NC(=O)c1cc(-c2cc(C(=O)NC3CNC(=O)C3)c3nc(N)nn3c2)cs1)c1ccccc1 (mixture of isomers) [Compound 29]
3 | 12 | 360 | C[C@H](NC(=O)c1cc(-c2cc(C(=O)NC3CCNC3)c3nc(N)nn3c2)cs1)c1ccc(F)cc1 (mixture of isomers) [Compound 33]
4 | 55 | 880 | C[C@H](NC(=O)c1cc(-c2cc(C(=O)NC3CCNC3)c3nc(N)nn3c2)cs1)c1ccccc1 (mixture of isomers) [Compound 34]
5 | 22 | 130 | CC(NC(=O)c1cc(-c2csc(C(=O)N[C@@H](C)c3ccccc3)c2)cn2nc(N)nc12)C(F)(F)F (mixture of isomers) [Compound 43]
6 | 28.5 | 240 | CC(NC(=O)c1cc(-c2csc(C(=O)N[C@@H](C)c3ccc(F)cc3)c2)cn2nc(N)nc12)C(F)(F)F (mixture of isomers) [Compound 51]
7 | 130 | 3600 | C[C@H](NC(=O)c1cc(-c2cc(C(=O)NC3CNC(=O)C3)c3nc(N)nn3c2)cs1)c1ccc(F)cc1 (single isomer, unassigned) [Compound 47]
8 | 2.4 | 77 | C[C@H](NC(=O)c1cc(-c2cc(C(=O)NC3CNC(=O)C3)c3nc(N)nn3c2)cs1)c1ccc(F)cc1 (single isomer, unassigned) [Compound 48]
9 | 94 | 1100 | C[C@H](NC(=O)c1cc(-c2cc(C(=O)NC3CCNC3)c3nc(N)nn3c2)cs1)c1ccc(F)cc1 (single isomer, unassigned) [Compound 49]
10 | 42 | 730 | C[C@H](NC(=O)c1cc(-c2cc(C(=O)NC3CCNC3)c3nc(N)nn3c2)cs1)c1ccccc1 (single isomer, unassigned) [Compound 50]
11 | 2.3 | 30 | C[C@H](NC(=O)c1cc(-c2cc(C(=O)NC3CNC(=O)C3)c3nc(N)nn3c2)cs1)c1ccccc1 (single isomer, unassigned) [Compound 54]
12 | 88 | 6500 | C[C@H](NC(=O)c1cc(-c2cc(C(=O)NC3CNC(=O)C3)c3nc(N)nn3c2)cs1)c1ccccc1 (single isomer, unassigned) [Compound 55]
13 | 92 | 2100 | C[C@H](NC(=O)c1cc(-c2cc(C(=O)NC3CCNC3)c3nc(N)nn3c2)cs1)c1ccccc1 (single isomer, unassigned) [Compound 57]
14 | 88 | 3500 | C[C@H](NC(=O)c1cc(-c2cc(C(=O)NC3CCNC3)c3nc(N)nn3c2)cs1)c1ccc(F)cc1 (single isomer, unassigned) [Compound 66]
15 | 4.85 | 55 | CC(NC(=O)c1cc(-c2csc(C(=O)N[C@@H](C)c3ccccc3)c2)cn2nc(N)nc12)C(F)(F)F (single isomer, unassigned) [Compound 71]
16 | 34 | – | COc1cccc(CNC(=O)c2cc(-c3cc(C(=O)NC(C)C)c4nc(N)nn4c3)cs2)c1 [Compound 3]
17 | 35 | – | CC(C)NC(=O)c1cc(-c2csc(C(=O)NCc3ccc(F)cc3)c2)cn2nc(N)nc12 [Compound 4, 2-Amino-6-(5-{[(4-fluorophenyl)methyl]carbamoyl}thiophen-3-yl)-N-(propan-2-yl)[1,2,4]triazolo[1,5-a]pyridine-8-carboxamide]
18 | 8.65 | – | CC(C)NC(=O)c1cc(-c2csc(C(=O)N[C@@H](C)c3ccc(F)cc3)c2)cn2nc(N)nc12 [Compound 19, 2-Amino-6-(5-{[(1S)-1-(4-fluorophenyl)ethyl]carbamoyl}thiophen-3-yl)-N-(propan-2-yl)[1,2,4]triazolo[1,5-a]pyridine-8-carboxamide]
19 | 160 | – | C[C@H](NC(=O)c1cc(-c2cc(C(=O)NC3COC3)c3nc(N)nn3c2)cs1)c1ccc(F)cc1 [Compound 73]
20 | 6.45 | – | C[C@H](NC(=O)c1cc(-c2cc(C(=O)NC(C)(C)CO)c3nc(N)nn3c2)cs1)c1ccc(F)cc1 [Compound 78]
21 | 14 | – | CC(C)NC(=O)c1cc(-c2csc(C(=O)N[C@H](C)c3ccc(F)cc3)c2)cn2nc(N)nc12 [Compound 96]
22 | 18 | – | Nc1nc2c(C(=O)N[C@H]3CCOC3)cc(-c3csc(C(=O)NCc4ccc(F)cc4)c3)cn2n1 [Compound 101]
23 | 12000 | – | Nc1nc2ccc(-c3csc(C(=O)N4CC5(COC5)C4)c3)cn2n1 [Compound 163]
24 | 28000 | – | COC(C)CN(C)C(=O)c1cc(-c2ccc3nc(N)nn3c2)cs1 (centres unmarked) [Compound 164]

Row | IC50 (DLK) [nM] | IC50 (LZK) [nM] | Compound
25 | 5200 | – | CN(Cc1ccc(F)cc1)C(=O)c1cc(-c2ccc3nc(N)nn3c2)cs1 [Compound 166]
26 | 10000 | – | CC1CCCN(C(=O)c2cc(-c3ccc4nc(N)nn4c3)cs2)C1 (centres unmarked) [Compound 167]
27 | 3500 | – | CC[C@H]1CC[C@H](NC(=O)c2cc(-c3ccc4nc(N)nn4c3)cs2)CC1 [Compound 178]
28 | 3400 | – | CC(C)(C)OC(=O)N1CCCC(NC(=O)c2cc(-c3ccc4nc(N)nn4c3)cs2)C1 (centres unmarked) [Compound 179]
29 | 4300 | – | NC(=O)c1cc(-c2ccc3nc(N)nn3c2)cs1 [Compound 183]
30 | 7600 | – | Nc1nc2ccc(-c3csc(C(=O)NC4CCOC4)c3)cn2n1 (centres unmarked) [Compound 186]
31 | 4700 | – | Nc1nc2ccc(-c3csc(C(=O)NCC4CCCO4)c3)cn2n1 (centres unmarked) [Compound 189]
32 | 3000 | – | Nc1nc2ccc(-c3csc(C(=O)NCC4CCCCO4)c3)cn2n1 (centres unmarked) [Compound 208]
33 | 2700 | – | Nc1nc2ccc(-c3csc(C(=O)NCC4CCOC4)c3)cn2n1 (centres unmarked) [Compound 210]
34 | 8600 | – | Cc1nc(CNC(=O)c2cc(-c3ccc4nc(N)nn4c3)cs2)cs1 [Compound 217]
35 | 8700 | – | CCn1cc(CNC(=O)c2cc(-c3ccc4nc(N)nn4c3)cs2)cn1 [Compound 218]
36 | 7600 | – | CN1CCC(CNC(=O)c2cc(-c3ccc4nc(N)nn4c3)cs2)CC1 [Compound 229]
37 | 12000 | – | COc1ccc2c(c1)CN(C(=O)c1cc(-c3ccc4nc(N)nn4c3)cs1)C2 [Compound 237]
38 | 4100 | – | Cn1cc(CNC(=O)c2cc(-c3ccc4nc(N)nn4c3)cs2)cn1 [Compound 244]
39 | 3900 | – | Cn1cncc1CNC(=O)c1cc(-c2ccc3nc(N)nn3c2)cs1 [Compound 252]
40 | > 30000 | – | CCCNc1nc2ccc(-c3csc(C(=O)NCc4cccc(OC)c4)c3)cn2n1 [Compound 253]
41 | 7000 | – | COc1cc(OC)nc(CNC(=O)c2cc(-c3ccc4nc(N)nn4c3)cs2)n1 [Compound 258]
42 | 2900 | – | Nc1nc2ccc(-c3csc(C(=O)Nc4ccccc4)c3)cn2n1 [Compound 259]
43 | > 30000 | – | COc1cccc(CNC(=O)c2cc(-c3ccc4nc(NCCN5CCOCC5)nn4c3)cs2)c1 [Compound 262]
44 | > 30000 | – | CCN(CC)CCNc1nc2ccc(-c3csc(C(=O)NCc4cccc(OC)c4)c3)cn2n1 [Compound 266]
45 | 11000 | – | COc1cccc(CNC(=O)c2cc(-c3cc(C(=O)NC(C)C)c4ncnn4c3)cs2)c1 [Compound 390]
46 | 2000 | – | CC(C)NC(=O)c1cc(-c2csc(C(=O)N[C@@H](C)c3ccc(F)cc3)c2)cn2ncnc12 [Compound 391]
47 | 260 | – | CC(C)c1nnc(-c2cc(-c3csc(C(=O)NCc4ccc(F)cc4)c3)cn3nc(N)nc23)s1 [Compound 393]

Reference: US20230382904A1, “SUBSTITUTED 4-([1,2,4]TRIAZOLO[1,5-a]PYRIDIN-6-YL)THIOPHENE-2-CARBOXAMIDE DERIVATIVES AND USE THEREOF” (The Johns Hopkins University, priority 2020, published 2023)
